Data on nine compounds can be found in patent publication US20050250748A1, “Combination therapy of angiotensin converting enzyme inhibitor and eplerenone for treatment of cardiovascular disease” (G. D. Searle & Co., priority 1999, published 2005).

Series [1] concerns patients with impaired ejection fraction post AMI. As to conditions: cited from earlier work.
Series [2] deals with patients with clinical evidence of HF at any time after an AMI. Conditions: cited from earlier work; for risk reduction in all cause mortality compared to placebo: p=0.002.
Series [3] has as its system patients with LV dysfunction 2 to 6 days following MI. Conditions: cited from earlier work.
The test system of the next series is hypertensive patients. As to conditions: despite continued ACE inhibition; cited from earlier work.
For series [4] the following is noted: at lower temperatures (below the enantiotropic transition temperature).
The test system of series [5] is patients with severe HF (NYHA Class IV). As to conditions: enalapril plus diuretics compared to placebo plus diuretics; cited from earlier work.
The subject of a further series is animal models. As to conditions: cited from earlier work.
The test system of series [6] is patients with severe HF (NYHA Class III or IV). As to conditions: cited from earlier work.
In series [7] the test system is patients with stable NYHA Class II-IV heart failure. As to the kind of experiment: Biological Evaluation I: randomized, double-blind, placebo and active drug-controlled 12-week trial of eplerenone with ACE inhibitor and loop diuretic. As to conditions: for plasma renin activity (PRA): drug therapy with ACE inhibitor and loop diuretic; for testosterone levels: in males; for urinary aldosterone excretion, increase from baseline: 12 week visit.

For series [8], the system named is patients afflicted with congestive heart failure. As to conditions: coadministered with an ACE inhibitor; cited from earlier work.
The subject of a further series is hypertensive-rat cohort. As to conditions: spironolactone subcutaneously; cited from earlier work.
Series [9] in a line: solubility of eplerenone in crystallization solvents. In kind it is physicochemical. As to conditions: organic solvent or mixture; room temperature; organic solvents used for crystallization.
The subject of series [10] is patients alive at Day 3 with Killip class >I. As to conditions: patients randomized to lisinopril; ACE-I treatment stopped at 42 days, more than 50% continued long-term; cited from earlier work.
The test system of series [11] is patients with myocardial infarction. As to conditions: patients with myocardial infarction receiving zofenopril; cited from earlier work.

Values after ≈ are worked out from the molar mass of the structure shown. Like-named read-outs stand apart in the source and are kept apart here.

`CCOC(=O)[C@H](CCc1ccccc1)N[C@@H](C)C(=O)N1[C@H](C(=O)O)C[C@@H]2CCC[C@@H]21` [ramipril]: the “ventricular dilatation and decline of systolic dysfunction” value in series [1] was “prevented ventricular dilatation and further decline of systolic dysfunction”. In [2] (AIRE), the “first-year mortality rate in the active (ACE-I) arm” value is reported as 16% and the “risk reduction in all cause mortality compared to placebo” value was 27%. In addition, the “reduction in the risk of developing severe resistant HF compared to placebo” value in series [2] (AIRE, p=0.017) is given as 23%. Also, in series [2] (AIREX long-term (three year) follow-up), the “risk reduction in all cause mortality compared to placebo” value is on record as 36%.
`CCOC(=O)[C@H](CCc1ccccc1)N[C@@H](C)C(=O)N1[C@H](C(=O)O)C[C@H]2CCCC[C@@H]21` [trandolapril]: the “first-year mortality rate in the active (ACE-I) arm” value in series [3] (TRACE) is 23%. The “relative reduction in the risk of death compared to placebo” value in series [3] (p=0.001) was 18%. In addition, the “reduction in the risk of progression to severe HF compared to placebo” value in series [3] (p=0.003) is on record as 29%.
As to `C[C@H](CS)C(=O)N1CCC[C@H]1C(=O)O` [captopril], the plasma aldosterone result in the series with hypertensive patients was “gradual return of plasma aldosterone to baseline levels”.
With `COC(=O)[C@@H]1CC2=CC(=O)CC[C@]2(C)[C@@]23O[C@@H]2C[C@@]2(C)[C@@H](CC[C@@]24CCC(=O)O4)[C@H]13` [Form L], the “physical stability relative to Form H” value in [4] is recorded as “greater physical stability”.
Turning to `CCOC(=O)[C@H](CCc1ccccc1)N[C@@H](C)C(=O)N1CCC[C@H]1C(=O)O` [enalapril], the mortality (in general, the percentage killed) at one year reduced in [5] was 31%.
Regarding `CC(=O)S[C@@H]1CC2=CC(=O)CC[C@]2(C)[C@H]2CC[C@@]3(C)[C@@H](CC[C@@]34CCC(=O)O4)[C@H]12` [spironolactone], in the series on animal models, the myocardial fibrosis result was “prevents myocardial fibrosis”. The myocardial fibrosis result in the series on animal models (listed as Spironolactone) is “prevent fibrosis in animal models irrespective of the development of left ventricular hypertrophy and the presence of hypertension”. The “reduction in mortality compared to placebo” value in [6] (as restated in the sample size discussion) is listed as greater than 30%. In series [6] (spironolactone 25 mg daily added to standard therapy (ACE-I and loop diuretic, with or without digoxin) vs standard therapy plus placebo, p<0.001), the “risk reduction for all cause mortality” value is reported as 30%. For the same compound, in [6] (spironolactone 25 mg daily added to standard therapy), the “lower frequency of hospitalization for worsening HF than placebo patients” value is 35%. Moreover, the “median increase in serum potassium concentration compared to placebo” value in series [6] (spironolactone added to standard therapy) is on record as “statistically but not clinically significant”. Moreover, in series [1], the “ventricular dilatation and decline of systolic dysfunction” value was “prevented ventricular dilatation and further decline of systolic dysfunction”. Further, in series [7], the “plasma renin activity (PRA)” value is recorded as “significantly elevated” and the testosterone levels entry is reported as “significant increase”. In addition, the “patients in whom highly effective” value in series [8] is given as 13 of 16. In addition, the fibrosis entry in the series with hypertensive-rat cohort is “prevent fibrosis”.
In the case of `COC(=O)[C@@H]1CC2=CC(=O)CC[C@]2(C)[C@@]23O[C@@H]2C[C@@]2(C)[C@@H](CC[C@@]24CCC(=O)O4)[C@H]13` [eplerenone, Pregn-4-ene-7,21-dicarboxylic acid, 9,11-epoxy-17-hydroxy-3-oxo-, γ-lactone, methyl ester, (7^α, 11^α, 17^α)-], the “urinary aldosterone excretion, increase from baseline” value in series [7] (25 mg eplerenone QD, P>0.05) is recorded as “did not reach statistical significance”; in [7] (eplerenone dose of 50 mg), “Greater increases”; in [7] (eplerenone dose of 100 mg), “Greater increases”. Also, in [7], the “plasma renin activity (PRA)” value is “significantly elevated”. The “reduction in BNP” value in series [7] (eplerenone at 25 mg, all patients) is reported as “highly significant”; in series [7] (eplerenone at 100 mg, all patients), “highly significant”; in series [7] (patients with high baseline BNP levels) it was “even greater”. In series [7], the testosterone levels entry is on record as “lack of effect”. The solubility (as a rule, how much of the substance goes into solution per volume) in series [9] fell in the range of 5 to 200 mg/mL (≈ 12.1 to 483 mM).
For the compound `NCCCC[C@H](N[C@@H](CCc1ccccc1)C(=O)O)C(=O)N1CCC[C@H]1C(=O)O` [lisinopril], the first-year mortality in [10] is recorded as 22%.
As to `C[C@H](CSC(=O)c1ccccc1)C(=O)N1C[C@@H](Sc2ccccc2)C[C@H]1C(=O)O` [zofenopril], the plasma aldosterone result in series [11] is “A similar effect”.
